Tested on: HepG2 cells
Assay: Cell viability test (MTT assay) against oxidative stress induced by AA+iron
Format: cell-based, human
Settings: for hepatocellular protective effect (cell viability): AA+iron in HepG2, compared with genistein and luteolin at the same concentration, FIG. 1
Procedure: HepG2 cell, a human-derived liver parenchymal cell line, was purchased from the American Type Culture Collection (ATCC, Rockville, MD, USA). Dulbecco's modified Eagle's medium (DMEM; Gibco) mixed with heat-treated 10% fetal bovine serum (FBS; Gibco), 100 units/ml of penicillin, and 100 μg/mL of streptomycin (Gibco) was used to culture HepG2 cells in an incubator maintained at 37° C. and 5% CO2 conditions. Cells were cultured in a 100 mm dish to a confluence of 80% or more, and subcultured twice a week at a ratio of 1:4. After serum-starvation for 12 hours, drugs were treated at different concentrations, and 1 hour later, 10 μM of AA was treated for 12 hours, and then treated with 5 μM of iron, and further cultured for 5 hours.
Cell viability was measured by MTT assay. HepG2 cells were dispensed in 0.5 mL/well at a concentration of 2×10^5 cells/well in a 24-well plate, and then cultured for 24 hours. After serum was depleted for 12 hours, the drug was treated for 1 hour, and then 10 μM of AA was treated for 12 hours, and 5 μM of iron was added and cultured for 5 hours. Herein, 300 μL of MTT 0.5 mg/mL per well was treated and reacted at 37° C. for 2 hours. After carefully removing the medium and dissolving formazan crystals produced by reducing MTT with dimethylsulfoxide (DMSO), absorbance was measured at 570 nm using a microplate measuring instrument (Tecan Infinite M200 PRO, USA).
In addition, in order to identify the cell viability according to the mixed use of icaritin and quercetin according to the results of FIG. 1, HepG2 cells were dispensed in 2×10^5 cells/well into a 24-well plate and cultured for 24 hours. After treatment for 1 hour at the concentrations shown in Table 1 below, 10 μM of AA was treated for 12 hours, and 5 μM of iron was added and cultured for 5 hours. […] The absorbance was measured at 570 nm using a microplate measuring instrument (Tecan Infinite M200 PRO, USA).

Row | Structure (SMILES) | hepatocellular protective effect (cell viability) | cell viability (HepG2, drug 1 h, then 10 μM AA 12 h + 5 μM iron 5 h, MTT, FIG. 2)
1 | O=c1c(O)c(-c2ccc(O)c(O)c2)oc2cc(O)cc(O)c12 [Comparative Example 2, quercetin] | most significant hepatocellular protective effects | about 47.9±0.4%
2 | COc1ccc(-c2oc3c(CC=C(C)C)c(O)cc(O)c3c(=O)c2O)cc1 [Comparative Example 1, icaritin] | most significant hepatocellular protective effects | 

— patent US20230293483A1, “COMPOSITION FOR PREVENTING OR TREATING LIVER DISEASE, COMPRISING ICARITIN AND QUERCETIN” (INDUSTRY-ACADEMIC COORPERATION FOUNDATION DAEGU HAANY …, priority 2020, published 2023)
